Experimental data published in article PMC10708113, “Comparative Study of Essential Oils from Different Organs of Syzygium cumini (Pamposia) Based on GC/MS Chemical Profiling and In Vitro Antiaging Activity” (Molecules, 2023).
Values after ≈ are worked out from the molar mass of the structure shown.

Biological target: T1, collagenase
T1 construct: gene colG
Assay: fluorometric collagenase inhibitor screening kit
Type: biochemical
Settings: 15 min preincubation at 25 °C; kinetic read 60 min at 37 °C; ex 490 / em 520 nm

Cc1cnc(NC(=O)C2=C(O)c3ccccc3S(=O)(=O)N2C)s1 [Meloxicam]
IC50: 38.48 µg/mL (≈ 110 µM)
